{"source": "paper PMC7442133", "about": "“Reduced treatment frequencies with bumped kinase inhibitor 1369 are effective against porcine cystoisosporosis” (International Journal for Parasitology: Drugs and Drug …, 2020)", "key": {"[1]": {"experiment": "Post-treatment observations for adverse events", "assay_type": "in vivo, piglets", "protocol": "For both experiments, post-treatment observations for any adverse events such as swelling/bleeding of the iron injection site, inability to stand, walk, suckle or other abnormal behavior, including dyspnoea, vomiting, limping, lateral recumbency, signs of pain, distress or neurological alterations ([Oldham, 1985]), were conducted under blinded conditions by a veterinarian at 2 h, 24 h and 48 h after treatment. In addition, all piglets were observed daily during the course of the studies to ensure good health, and any condition that required veterinary intervention was recorded and addressed."}, "[2]": {"experiment": "Body weight development of experimentally infected suckling piglets", "assay_type": "in vivo", "details": "for BW SD 8 / BW SD 15 / BW SD 22 / BW SD 29 / BW SD 1: SD in brackets; for BW SD 1: before treatment"}, "[3]": {"details": "Exp I group A: 1 × 20 mg/kg BW, SD 3 (0 dpi)"}, "[4]": {"details": "Exp I group B: 1 × 20 mg/kg BW, SD 5 (2 dpi)"}, "[5]": {"details": "Exp I group C: 2 × 20 mg/kg BW, SD 5 & 7 (2 & 4 dpi)"}, "[6]": {"details": "Exp II group W: 1 × 20 mg/kg BW, SD 5 (2 dpi)"}, "[7]": {"details": "Exp II group X: 1 × 10 mg/kg BW, SD 5 (2 dpi)"}, "[8]": {"details": "Exp II group Y: 1 × 5 mg/kg BW, SD 5 (2 dpi)"}}, "note": "Several values for one entry are separate records, joined by “and”; a condition that tells them apart may be missing. Equal entries are not always repeated. Entries after “also recorded” stand apart in the source; their conditions may differ.", "data": [{"smiles": "CCOc1ccc2cc(-c3nn(CC4CCN(C)CC4)c4ncnc(N)c34)ccc2n1", "note": "[BKI 1369]", "values": [{"measurement": "Treatment-related adverse effects that required veterinary intervention", "setting": "[1]; 5, 10 or 20 mg/kg BW, one or two oral doses, whole study period", "result": "No piglets showed treatment-related adverse effects; also recorded: without any adverse effects"}, {"measurement": "Visible signs of toxicity, clinically relevant systemic or regional/local responses related to treatment", "setting": "[1]; treated groups, both experiments", "result": "Neither visible signs of toxicity nor clinically relevant systemic or regional/local responses related to treatment were observed"}, {"measurement": "BW SD 8", "setting": "[2]; [3]", "result": "2604 [283.8] g"}, {"measurement": "BW SD 15", "setting": "[2]; [3]", "result": "4198.4 [573.9] g"}, {"measurement": "BW SD 22", "setting": "[2]; [3]", "result": "6082 [750.1] g"}, {"measurement": "BW SD 29", "setting": "[2]; [3]", "result": "7956 [750.22] g"}, {"measurement": "BW SD 1", "setting": "[2]; [3]", "result": "1276 [227.4] g"}, {"measurement": "BWG SD 8 to 15 (mean body weight gain, acute phase of infection)", "setting": "[2]; Exp I group A: 1 × 20 mg/kg BW, SD 3 (0 dpi), control D 1042 g, 20 mg/kg", "result": "1594 g and 1594.4 g"}, {"measurement": "BW SD 8", "setting": "[2]; [4]", "result": "2530.9 [362.3] g"}, {"measurement": "BW SD 15", "setting": "[2]; [4]", "result": "4292.7 [724.9] g"}, {"measurement": "BW SD 22", "setting": "[2]; [4]", "result": "5892.7 [1225.6] g"}, {"measurement": "BW SD 29", "setting": "[2]; [4]", "result": "7721.8 [1710.2] g"}, {"measurement": "BW SD 1", "setting": "[2]; [4]", "result": "1214.5 [206.9] g"}, {"measurement": "BWG SD 8 to 15 (mean body weight gain, acute phase of infection)", "setting": "[2]; Exp I group B: 1 × 20 mg/kg BW, SD 5 (2 dpi), control D 1042 g, 20 mg/kg", "result": "1762 g and 1761.8 g"}, {"measurement": "BW SD 8", "setting": "[2]; [5]", "result": "2494.5 [328.9] g"}, {"measurement": "BW SD 15", "setting": "[2]; [5]", "result": "4267.3 [491.6] g"}, {"measurement": "BW SD 22", "setting": "[2]; [5]", "result": "5950.9 [619.6] g"}, {"measurement": "BW SD 29", "setting": "[2]; [5]", "result": "7867.3 [851.9] g"}, {"measurement": "BW SD 1", "setting": "[2]; [5]", "result": "1163.6 [205.5] g"}, {"measurement": "BWG SD 8 to 15 (mean body weight gain, acute phase of infection)", "setting": "[2]; Exp I group C: 2 × 20 mg/kg BW, SD 5 & 7 (2 & 4 dpi), control D 1042 g, 20 mg/kg", "result": "1773 g and 1772.7 g"}, {"measurement": "BW SD 8", "setting": "[2]; [6]", "result": "3148.0 [610.4] g"}, {"measurement": "BW SD 15", "setting": "[2]; [6]", "result": "5140.0 [830.8] g"}, {"measurement": "BW SD 22", "setting": "[2]; [6]", "result": "6952.0 [1204.0] g"}, {"measurement": "BW SD 29", "setting": "[2]; [6]", "result": "9242.0 [1250.4] g"}, {"measurement": "BW SD 1", "setting": "[2]; [6]", "result": "1606.0 [347.4] g"}, {"measurement": "BWG SD 8 to 15 (mean body weight gain, acute phase of infection)", "setting": "[2]; Exp II group W: 1 × 20 mg/kg BW, SD 5 (2 dpi), control Z 389 g, 20 mg/kg", "result": "1992 g and 1992.0 g"}, {"measurement": "BW SD 8", "setting": "[2]; [7]", "result": "1968.0 [632.7] g"}, {"measurement": "BW SD 15", "setting": "[2]; [7]", "result": "4606.0 [745.5] g"}, {"measurement": "BW SD 22", "setting": "[2]; [7]", "result": "6502.0 [1068.4] g"}, {"measurement": "BW SD 29", "setting": "[2]; [7]", "result": "8752.0 [2465.6] g"}, {"measurement": "BW SD 1", "setting": "[2]; [7]", "result": "1472.0 [353.0] g"}, {"measurement": "BWG SD 8 to 15 (mean body weight gain, acute phase of infection)", "setting": "[2]; Exp II group X: 1 × 10 mg/kg BW, SD 5 (2 dpi), control Z 389 g, 10 mg/kg", "result": "1638 g and 1638.0 g"}, {"measurement": "BW SD 8", "setting": "[2]; [8]", "result": "2771.1 [654.5] g"}, {"measurement": "BW SD 15", "setting": "[2]; [8]", "result": "3891.1 [990.8] g"}, {"measurement": "BW SD 22", "setting": "[2]; [8]", "result": "5782.2 [1340.1] g"}, {"measurement": "BW SD 29", "setting": "[2]; [8]", "result": "8055.6 [1626.8] g"}, {"measurement": "BW SD 1", "setting": "[2]; [8]", "result": "1444.4 [391.1] g"}, {"measurement": "BWG SD 8 to 15 (mean body weight gain, acute phase of infection)", "setting": "[2]; Exp II group Y: 1 × 5 mg/kg BW, SD 5 (2 dpi), control Z 389 g, 5 mg/kg", "result": "1120 g and 1120.0 g"}, {"measurement": "Body weight gain compared to control piglets (in words)", "setting": "[2]; irrespective of time points and frequencies of treatment", "result": "significant increase in body weight gain"}]}]}
